Literature values in US20070212386A1, “COATINGS FOR IMPLANTABLE MEDICAL DEVICES” (Sahajanand Medical Technologies Pvt. Ltd., priority 2006, published 2007).

Assays:
[1] = general statement
[2] = test system: collagen induced platelet aggregation; settings: literature refs [2,5]

solubility in water [1]	SMILES	concentration preventing collagen induced platelet aggregation [2]
practically insoluble in water	O=c1c(O)c(-c2ccc(O)c(O)c2)oc2cc(O)cc(O)c12 [Quercetin, 2-(3,4-dihydroxyphenyl)-3,5,7-trihydroxy-4H-1-benzopyran-4-one]	–
practically insoluble in water	O=c1c(-c2ccc(O)cc2)coc2cc(O)cc(O)c12 [Genistein, 5,7-dihydroxy-3-(4-hydroxyphenyl)-4H-1-benzopyran-4-one]	more than 25 μM
greater water solubility than genistein	O=c1c(-c2ccc(O)cc2)coc2cc(O[C@@H]3O[C@H](CO)[C@@H](O)[C@H](O)[C@H]3O)cc(O)c12 [Genistin]	–
